Laboratory results: patent US10117942B2, “Photoactivatable lipid-based nanoparticles as vehicles for dual agent delivery” (The United States of America, as represented by the …, priority 2013, dated 2018)

Columns and labels:
[1] = at physiological pH; cited from earlier work
[2] = 0.5 mg or 2.5 mg liposomal lipid
Description: As a control, mice were injected with doxorubicin in the absence of liposomes.

Structure (SMILES): CCCCCCOC(C)c1c(C)c2cc3nc(c4c5[nH]c(cc6nc(cc1[nH]2)C(C)=C6CC)c(C)c5C(=O)C4)[C@@H](CCC(=O)O)[C@@H]3C (some centres unmarked) [HPPH, 2-[1-hexyloxyethyl]-2-devinyl pyropheophorbide-a]
- log P [1]: 5.6

Structure (SMILES): COc1cccc2c1C(=O)c1c(O)c3c(c(O)c1C2=O)C[C@@](O)(C(=O)CO)C[C@@H]3O[C@H]1C[C@H](N)[C@H](O)[C@H](C)O1 [doxorubicin]
- organ uptake (fluorescence Ex=500, Em=600) [2]: no fluorescence was observed
